Common to all, as to assay: NCI tumour cell line growth inhibition, 48 h
For test [1], the system named is SF-539 CNS.
The test system of test [2] is SNB-19 CNS.
The subject of test [3] is SK-MEL-5 melanoma.
Test [4] deals with HOP-92 NSCLC.
Test [5] has as its system HOP-62 NSCLC.
For test [6], the system named is OVCAR-5 ovarian.
Test [7] concerns K-562 leukemia.
For test [8], the system named is U251 CNS.
Test [9] has as its system 786-0 renal.
In test [10] the test system is SF-268 CNS.

The structures appear in SMILES notation. “And” between values parts separate entries of the source, which are not always exact repeats. Equal values may be shown once.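 Five concentrations, 48 hours, 96-well plates. GI50 = concentration required for 50% inhibition of growth. TGI: concentration producing complete growth inhibition.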

Consider `CCN(CC)CCCC(C)Nc1ccnc2cc(Cl)ccc12` (configuration not stated), for which the TGI was 35.7 µM and 32.5 µM in test [1]; above 100 µM in [2]; 48.2 µM and 63.3 µM in test [3]; > 100 µM and 44.9 µM in test [4]; above 100 µM in test [5]; above 100 µM in [6]. In addition, the TGI is 88.2 µM and 32.4 µM in test [7]; > 100 µM and 66.1 µM in [8]; > 100 µM and 23.9 µM in test [9]; above 100 µM in test [10]. The GI50 in test [2] was above 100 µM; in test [3], 21.9 µM; in test [4] it was 52 µM; in [5], above 100 µM; in test [7], 22.6 µM; in test [8], above 100 µM. Besides, the GI50 in [9] is 67.2 µM.
